Experimental data: US20090311246A1, “Method of Enhancing Remyelination in Demyelinating Diseases of the Central Nervous System” (priority 2008, published 2009)
Entries after “also recorded” stand apart in the source; their conditions may differ.

Key:
Normal Rabbit Serum = assay: Indirect ELISA of normal rabbit serum/IgG against viral and myelin antigens; assay type: binding; details: 10^−2 diluted
B6 mice with EAE = assay: Inflammation, demyelination and remyelination in lumbar spinal cord of E2 137-151 treated EAE mice; assay type: in vivo
Source text: All figures come from one micron epoxy sections taken from brain tissues, fixed in 2.5% glutaraldehyde/1% osmium tetroxide, embedded in epoxy resin, stained with toluidine blue and photographed by light microscopy.
(§1) In order to be able to detect the de- and remyelination accurately, at the end of the experiment, mice will be sacrificed by an overdose of sodium pentobarbital and perfused by intracardiac puncture with Trumps fixative, containing 4% paraformaldehyde and 1% glutaraldehyde. Brains and spinal cords are removed and post fixed in osmium textroxide. Each brain is sectioned coronally into three pieces by cuts through infandibulum and optic chiasm. Spinal cord tissues will be also harvested and processed. Every third block (10-12 blocks per spinal cord, cervical to lumbar range) will be embedded, along with brain sections, in Araldite plastic. The embedded tissues will be cross-sectioned at 1 μm thickness, and the slides stained with toluidine blue or 4% paraphenylenediamine to highlight the myelin sheets. We have studied the one-micron thin sections of the brains of SFV-infected WT and KO on days of 21-42 postinfection.
In order to be able to analyze de- and remyelination accurately in untreated and E2 137-151 treated LAE mice, one micron sections of lumbar spinal cords of all mice, were analyzed as described above for SFV-infected mice, on different days post immunization. […] Widespread Wallerian degeneration evidenced by dilated and collapsed myelin sheaths, some containing axonal remnants, was also observed. Cellular infiltration was present within the meningeal space as well. […] Spinal cord white matter of normal control mice is also shown for comparison (FIG. 8C)

[1] = test system: sera from SFV-infected WT and γδ KO mice; assay: ELISA of sera from SFV-infected WT and γδ KO mice against SFV, E2 peptides, PPD and rMOG; assay type: binding
B6 mice = details: unpublished data
[2] = test system: SFV-infected WT and γδ KO mice; assay: E2 137-151 peptide immunization during SFV disease: histopathology, remyelination in one micron brain sections; assay type: in vivo; details: for Remyelination in KO mice: peptide-immunized SFV-infected γδ KO mice, day 28 pi
Source text: FIG. 4 Remyelination in E2 137-151 immunized, SFV-infected WT and γδ-KO B6 mice. All figures come from one micron epoxy sections taken from brain tissues, fixed in 2.5% glutaraldehyde/1% osmium tetroxide, embedded in epoxy resin, stained with toluidine blue and photographed by light microscopy.
as §1
as §1, with “[…] These lesions were impossible to quantitate due to very small sizes of nerve fibers. Consequently we plan to study” for “The embedded tissues will be cross-sectioned at 1 μm thickness, and”, “cross” for “slides stained with toluidine blue or 4% paraphenylenediamine to highlight the myelin sheets. We have studied the one-micron thin”, “spinal cords to quantitate these lesins, as has been previously reported (71). […]” for “the brains of SFV-infected WT and KO on days of 21-42 postinfection.”

[3] = test system: sera from SFV-infected B6 mice; assay type: binding
Method: To measure the antibody response of both WT and γδ KO mice against SFV and two of the peptides of the SFV envelope protein, E2, an indirect ELISA was performed. Sera were pooled from 4-6 SFV-infected WT, and 3 KO, mice on days 0, 7, 14, 21 and 35 pi. Briefly, Immunolon 2HB 96 well microtiter plates (VWR, Bridge Port, N.J.) were coated with 1 μg/well of each antigen in 100 μl/well carbonate buffer overnight at room temperature. After washing, the plates were blocked and serum samples were added. […] After washing, biotinylated goat anti-mouse Igs (BD Pharmingen, Torreyana, Calif.), Strepavidin conjugated to Horse Radish Peroxidase (Vector Laboratories, Burlingame, Calif.), and OPD substrate (Sigma, St. Louis, Mo.) were used, as previously described (4, 9). […] Values were considered to be positive when they were >0.3 OD units and exceeded the mean value plus three standard deviations for antibody response on day 0 pi of mice of the same strain. […]
In some instances day 0 OD values were high, thus making the differences appear small. Therefore, to account for such discrepancy, we also determined the ratio of the highest day (day 15 or 21) over day 0.

For `CC[C@H](C)[C@H](NC(=O)[C@H](CCC(=O)O)NC(=O)[C@H](CCCCN)NC(=O)CNC(=O)[C@H](Cc1ccc(O)cc1)NC(=O)[C@H](Cc1c[nH]cn1)NC(=O)[C@@H]1CCCN1C(=O)[C@H](CCCNC(=N)N)NC(=O)[C@@H](NC(=O)[C@@H](NC(=O)[C@H](Cc1ccccc1)NC(=O)[C@H](CCCCN)NC(=O)[C@H](CCC(=O)O)NC(=O)[C@H](CCCNC(=N)N)NC(=O)CN)[C@@H](C)O)[C@@H](C)CC)C(=O)O` [E2 137-151], the “Normal Rabbit Serum, OD at 490 nm” value (Normal Rabbit Serum) was 0.173 OD, the “Wallerian degeneration in lumbar spinal cord” value (B6 mice with EAE; day 33) was “No wallerian degeneration” and the “Inflammation in lumbar spinal cord” value (B6 mice with EAE; day 33 pi) was “little to no inflammation; also recorded: No wallerian degeneration and inflammation is present”. The “Remyelination in spinal cord” value (B6 mice with EAE; day 33 pi) was “some remyelinating fibers; also recorded: some fibers display remyelination”, the “Remyelination in spinal cord” value (B6 mice with EAE; day 33 pi, listed as E2 137-151 peptide) was “induced remyelination” and the “Net change in the level of antibody, D0 WT” value ([1]; WT mice, day 0) was 0 nano gr. The “Net change in the level of antibody, D7 WT” value ([1]; WT mice, day 7 pi, ± SD) was 72 ± 28 nano gr, the “Net change in the level of antibody, D14 WT” value ([1]; WT mice, day 14 pi, ± SD) was 565 ± 33 nano gr and the “Net change in the level of antibody, D21 WT” value ([1]; WT mice, day 21 pi, ± SD) was 1196 ± 61 nano gr. For the same molecule, the “Net change in the level of antibody, D35 WT” value ([1]; WT mice, day 35 pi, ± SD) was 951 ± 50 nano gr, the “Reactivity of sera from SFV-infected WT mice” value ([1]; WT, sera 1:80, day 7 pi increasing to day 35) was “reacted strongly” and the “Net change in the level of antibody, D0 KO” value ([1]; γδ KO mice, day 0) was 0 nano gr. For the same molecule, the “Net change in the level of antibody, D7 KO” value ([1]; γδ KO mice, day 7 pi, ± SD) was 39 ± 25 nano gr, the “Net change in the level of antibody, D14 KO” value ([1]; γδ KO mice, day 14 pi, ± SD) was 36 ± 19 nano gr and the “Net change in the level of antibody, D21 KO” value ([1]; γδ KO mice, day 21 pi, ± SD) was 46.5 ± 19 nano gr. For the same molecule, the “Net change in the level of antibody, D35 KO” value ([1]; γδ KO mice, day 35 pi, ± SD) was 41 ± 28 nano gr, the “Reactivity of sera from SFV-infected γδ KO mice” value ([1]; γδ KO, sera 1:80) was “marginally reacted” and the “Histopathology after inoculation with the peptide” value (B6 mice) was “did not cause histopathology”. For the same molecule, the “Remyelination in WT mice” value ([2]; peptide-immunized SFV-infected WT mice) was “normal remyelination”, the “Remyelination in KO mice” value [2] was “advanced remyelination” and the “Remyelination in KO mice” value ([2]; listed as E2 137-151 peptide) was “early remyelination; also recorded: promoted remyelination”. For the same molecule, the “Dh / D0 (Ratio)” value ([3]; OD of highest day (day 15 or 21) over day 0, SFV-infected sera) was 3.96, the “Dh−D0 (difference)” value ([3]; OD of highest day minus day 0, SFV-infected sera) was 0.406 and the “Net change in the levels of antibody (ΔOD), D7-9” value ([3]; SFV-infected mice sera, days 7-9 pi, day 0 OD subtracted) was 0.84 ± 0.39 ΔOD. For the same molecule, the “Net change in the levels of antibody (ΔOD), D14-16” value ([3]; SFV-infected mice sera, days 14-16 pi, day 0 OD subtracted) was 1.83 ± 0.47 ΔOD, the “Net change in the levels of antibody (ΔOD), D21-23” value ([3]; SFV-infected mice sera, days 21-23 pi, day 0 OD subtracted) was 2.19 ± 0.76 ΔOD and the “Net change in the levels of antibody (ΔOD), D31-35” value ([3]; SFV-infected mice sera, days 31-35 pi, day 0 OD subtracted) was 2.08 ± 0.67 ΔOD. The “Reactivity of sera from SFV-infected B6 mice with the antigen in ELISA” value ([3]; vs day 0) was “reacted”.
